Our source for the EC50 values is patent publication US20140221499A1, “NOVEL RODENT CONTROL AGENTS AND USES THEREOF” (priority 2011, published 2014).

In one experiment the target is T1, mTAAR4 (Mus musculus, UniProt Q5QD15).
T1 construct: Full Taar coding regions were cloned into pcDNA3.1; expressed in transfected cells; host or cells: HEK293
T1 sequence (Q5QD15 with tags, fused parts or gaps): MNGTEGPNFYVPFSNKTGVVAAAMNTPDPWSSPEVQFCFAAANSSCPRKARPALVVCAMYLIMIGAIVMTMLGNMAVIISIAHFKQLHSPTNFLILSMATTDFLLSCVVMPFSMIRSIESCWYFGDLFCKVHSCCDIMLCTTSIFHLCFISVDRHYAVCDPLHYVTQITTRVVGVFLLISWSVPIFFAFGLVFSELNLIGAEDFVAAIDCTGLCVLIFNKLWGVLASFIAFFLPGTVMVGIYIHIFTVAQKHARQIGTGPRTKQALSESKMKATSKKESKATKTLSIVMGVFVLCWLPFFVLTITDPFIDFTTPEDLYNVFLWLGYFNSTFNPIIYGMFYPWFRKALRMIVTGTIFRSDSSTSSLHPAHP
Kind of experiment: CRE-SEAP reporter gene assay in HEK293 cells transfected with mTAAR4 (fusion with N-terminal sequence of bovine rhodopsin, 'Rho tag'). As to conditions: FIG. 11B, mTAAR4 required a 'Rho tag' (N-terminal bovine rhodopsin sequence, first 20 amino acids), EC50 ± s.e.m., 4-parameter Hill equation. The class given is cell-based.

The next experiment deals with T2, rTAAR9 (Rattus norvegicus, UniProt Q923Y6).
T2 construct: Full Taar coding regions were cloned into pcDNA3.1; expressed in transfected cells; host or cells: HEK293
T2 sequence (Q923Y6 1-338): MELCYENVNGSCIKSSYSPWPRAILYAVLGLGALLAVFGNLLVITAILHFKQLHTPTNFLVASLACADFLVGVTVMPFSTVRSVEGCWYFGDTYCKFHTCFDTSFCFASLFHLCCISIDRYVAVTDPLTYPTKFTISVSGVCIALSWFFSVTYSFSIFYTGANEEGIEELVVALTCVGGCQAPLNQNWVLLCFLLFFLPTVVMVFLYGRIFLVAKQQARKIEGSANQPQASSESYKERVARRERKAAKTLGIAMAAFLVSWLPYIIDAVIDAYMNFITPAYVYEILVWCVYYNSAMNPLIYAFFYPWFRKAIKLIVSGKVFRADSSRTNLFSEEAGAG
Description: CRE-SEAP reporter gene assay in HEK293 cells transfected with rTAAR9. The class given is cell-based. The following applies: FIG. 11A, functional with or without 'Rho tag', EC50 ± s.e.m., 4-parameter Hill equation. The procedure:
FIG. 11 illustrates the dose-dependent responses of TAARs to amines. HEK293 cells were cotransfected with plasmids encoding CRE-SEAP and rTAARs (a) or mTAARs (b), incubated with concentrations of ligands indicated, and assayed for reporter activity (triplicates±s.d.). EC50 values (±s.e.m, bottom right) were calculated using SigmaPlot (Systat Software) and a 4-parameter Hill equation.
The following mixes (10 μM of each indicated compounds) were tested for their ability to activate rat TAARs. Mix 1: butylamine, dibutylamine, hexylamine. Mix 2: 2-aminopentane, isoamylamine, isobutylamine, isopropylamine. Mix 3: N,N-dimethylcyclohexylamine, 1-methylindole, tryptamine, phenylethylamine. Mix 4: indole, 1-methylpyrrolidine, 1-methylpiperidine, pyrrolidine. […]
Full Taar coding regions were cloned into pcDNA3.1-(Invitrogen) with or without a 5′ DNA extension of 69 bp encoding the first 20 amino acids of bovine rhodopsin followed by a cloning linker ([…]). […] Fluorescence was measured on an EnVision plate reader (Perkin Elmer) and SEAP activity graphed as relative fluorescence of a phosphatase substrate.
Here, we set out to identify agonists for additional mouse and rat TAARs. […] Transfected cells were incubated with test chemicals, and phosphatase activity was quantified with a fluorescent substrate as a reporter for TAAR activation. […]

Each structure is given as a SMILES string.

Description for mTAAR4: (A) HEK293 cells were transfected with TAAR4 and reporter plasmids, incubated with urine extracts of species indicated, and assayed for reporter activity (triplicates±SD). […] TAAR4 was expressed as a fusion protein with an N-terminal sequence of bovine rhodopsin, which provided enhanced signal (24). […] Urine (diluted 300- or 100-fold) or urine extracts (diluted 30-, 10-, or 3-fold) of species indicated were tested (triplicates±s.d.).
FIG. 11 illustrates the dose-dependent responses of TAARs to amines. […] EC50 values (±s.e.m, bottom right) were calculated using SigmaPlot (Systat Software) and a 4-parameter Hill equation.
Full Taar coding regions were cloned into pcDNA3.1-(Invitrogen) with or without a 5′ DNA extension of 69 bp encoding the first 20 amino acids of bovine rhodopsin followed by a cloning linker ([sequence]). […] Fluorescence was measured on an EnVision plate reader (Perkin Elmer) and SEAP activity graphed as relative fluorescence of a phosphatase substrate.
HEK293 cells were co-transfected with TAAR expression plasmids and a cAMPdependent reporter gene encoding secreted alkaline phosphatase (CRE-SEAP). Transfected cells were incubated with urine extracts from different mammalian species, and phosphatase activity was quantified with a fluorescent substrate as a reporter for TAAR activation.

Take `NCCc1ccccc1` [2-phenylethylamine]: a half-maximal response at mTAAR4 (EC50) required 7.5 ± 3.7 µM.

On to `CN(C)C1CCCCC1` [N,N-DIMETHYLCYCLOHEXYLAMINE, N,N-dimethylcyclohexylamine], for which, at rTAAR9, a half-maximal response (EC50) required 26.6 ± 1.9 µM.
